Values of other authors, collected in patent US6743775B2, “Slow release formulations comprising anionic polysaccharide” (Alpenstock Holdings Limited, priority 1998, dated 2004).

Conditions: gelatine alone; Schwartz et al., Principles of Surgery 1979

For gelatine, the haemostatic effect is listed as “only displays a haemostatic effect after an addition of thrombin”.
